Experimental data taken from paper PMC9145865, “Effects of Rare Phytocannabinoids on the Endocannabinoid System of Human Keratinocytes” (International Journal of Molecular Sciences, 2022).

Legend:
CB1 [1] = test: qRT-PCR gene expression of CB1; type: cell-based, human; conditions: HaCaT cells, half-IC50 dose, 24 h, vs. control
Experimental: The HaCaT cells were seeded into 6-well plates at a density of 4 × 10^4 per well, incubated overnight and then treated with the selected pCBs (CBG (6.0 µM), CBC (4.0 µM), THCV (9.0 µM) and CBGA (13.0 µM)) for 24 h. The cell pellets were collected and RT-PCR reactions were performed using the RevertAid H Minus First Strand cDNA Synthesis Kit. The relative abundance was assessed via RT quantitative PCR (RT-qPCR) using the SensiFAST SYBR Lo-ROX Kit in an Applied Biosystems 7500 Fast Real-Time PCR System (Life Technologies). To provide the precise quantification of the initial target in each PCR reaction, the amplification plot was examined, as well as the point of early log phase of the product accumulation, which was defined by assigning a fluorescence threshold above the background that was defined as the threshold cycle number or “Ct. Differences” in threshold cycle number that was used to quantify the relative amount of the PCR targets that were contained within each tube. After PCR, a dissociation curve (melting curve) was constructed in the range of 60 °C to 95 °C [62] to evaluate the specificity of the amplification products. The relative expression of the different amplicons was calculated using the delta–delta Ct (ΔΔCt) method and then converted into the relative expression ratio (2^−ΔΔCt) for statistical analysis. All data were normalized to the endogenous reference genes β-actin and glyceraldehyde-3-phosphate dehydrogenase. The specific primers (Table 5) that were used were designed and ordered from Integrated DNA Technologies (IDT; Coralville, IA, USA) with the following sequences: […]

NAPE-PLD = test: qRT-PCR gene expression of NAPE-PLD; type: cell-based, human; conditions: HaCaT cells, half-IC50 dose, 24 h, vs. control
Experimental: (§1) The HaCaT cells were seeded into 6-well plates at a density of 4 × 10^4 per well, incubated overnight and then treated with the selected pCBs (CBG (6.0 µM), CBC (4.0 µM), THCV (9.0 µM) and CBGA (13.0 µM)) for 24 h. The cell pellets were collected and RT-PCR reactions were performed using the RevertAid H Minus First Strand cDNA Synthesis Kit. The relative abundance was assessed via RT quantitative PCR (RT-qPCR) using the SensiFAST SYBR Lo-ROX Kit in an Applied Biosystems 7500 Fast Real-Time PCR System (Life Technologies). To provide the precise quantification of the initial target in each PCR reaction, the amplification plot was examined, as well as the point of early log phase of the product accumulation, which was defined by assigning a fluorescence threshold above the background that was defined as the threshold cycle number or “Ct. Differences” in threshold cycle number that was used to quantify the relative amount of the PCR targets that were contained within each tube. After PCR, a dissociation curve (melting curve) was constructed in the range of 60 °C to 95 °C [62] to evaluate the specificity of the amplification products. The relative expression of the different amplicons was calculated using the delta–delta Ct (ΔΔCt) method and then converted into the relative expression ratio (2^−ΔΔCt) for statistical analysis. […]

FAAH [2] = test: Western blot protein expression of FAAH; type: cell-based, human; conditions: HaCaT cells, half-IC50 dose, 24 h, vs. control
Experimental: (§2) The HaCaT cells were seeded into 6-well plates at a density of 4 × 10^4 per well, incubated overnight and then treated with the selected pCBs (6.0 µM of CBG, 4.0 µM of CBC, 9.0 µM of THCV and 13.0 µM of CBGA) for 24 h. The cell pellets were collected and then lysed in an ice-cold lysis buffer (10 mM of EDTA, 50 mM of pH 7.4 Tris–HCl, 150 mM of sodium chloride, 1% Triton-X-100, 2 mM of phenylmethylsulfonyl fluoride, 2 mM of sodium orthovanadate, […] of leupeptin and […] of aprotinin). The amount of protein was determined using the Bio-Rad Protein assay (Bio-Rad Laboratories, Hemel Hempstead, UK). An equal amount of protein (60 µg) was loaded onto 10% sodium dodecyl sulfate–polyacrylamide gels and blotted onto polyvinylidene fluoride sheets (Amersham Biosciences, Piscataway, NJ, USA). The membranes were blocked with dried 5% non-fat milk for 1 h and then incubated with suitable primary antibodies. Detection was performed using Azure Biosystems c400 (Dublin, CA, USA). The membranes were stripped using the Restore Western Blot Stripping Buffer from Thermo Fisher Scientific (Waltham, MA, USA) for 30 min under agitation at room temperature, according to the manufacturer’s instructions. The primary antibodies (Table 6) that were used were obtained from the following sources: […]

CB1 [3] = test: Western blot protein expression of CB1; type: cell-based, human; conditions: HaCaT cells, half-IC50 dose, 24 h, vs. control
Experimental: as §2

DAGLα = test: Western blot protein expression of DAGLα; type: cell-based, human; conditions: HaCaT cells, half-IC50 dose, 24 h, vs. control
Experimental: as §2

DAGLβ = test: Western blot protein expression of DAGLβ; type: cell-based, human; conditions: HaCaT cells, half-IC50 dose, 24 h, vs. control
Experimental: as §2

MAGL [4] = test: Western blot protein expression of MAGL; type: cell-based, human; conditions: HaCaT cells, half-IC50 dose, 24 h, vs. control
Experimental: as §2

CB1 [5] = conditions: in vivo and in vitro; ref [53]; cited from earlier work
FAAH [6] = test: qRT-PCR gene expression of FAAH; type: cell-based, human; conditions: HaCaT cells, half-IC50 dose, 24 h, vs. control
Experimental: as §1

MAGL [7] = test: qRT-PCR gene expression of MAGL; type: cell-based, human; conditions: HaCaT cells, half-IC50 dose, 24 h, vs. control
Experimental: as §1

2-AG = test: Endogenous 2-AG content by UHPLC-MS/MS; type: cell-based, human; conditions: HaCaT cells, half-IC50 dose, 24 h, vs. control
Experimental: (§3) The HaCaT cells were seeded into 6-well plates at a density of 4 × 10^4 per well, incubated overnight and then treated with the selected pCBs (6.0 µM of CBG, 4.0 µM of CBC, 9.0 µM of THCV and 13.0 µM of CBGA) for 24 h. The analytical standards that were used were N-arachidonoylethanolamine (AEA), N-arachidonoylethanolamine-d8 (AEA-d8), 2-arachidonoylglicerol (2-AG), 2-arachidonoylglicerol-d8 (2-AG-d8), N-palmitoylethanolamine (PEA) and […] (PEA-d4). The lipid fraction from these cells was extracted using chloroform–methanol–water (2:1:1 v/v) in the presence of ISs (1 ng/mL^−1 of AEA-d8, 100 ng mL^−1 of 2-AG-d8 and 1 ng mL^−1 of PEA-d4). The organic phase was dried under gentle nitrogen stream and then subjected to a micro-solid phase extraction (µSPE) procedure for a rapid clean-up using OMIX C18 tips from Agilent Technologies (Santa Clara, CA, USA). All analyses were performed using a Nexera XR LC 20 AD UHPLC system (Shimadzu Scientific Instruments, USA) that was equipped with Kinetex XB-C18 1.7 µm 100 × 2.1 mm from Phenomenex (Torrance, CA, USA) (for the LC parameters, see Figure S5) and coupled with a 4500 Qtrap from Sciex (Toronto, ON, Canada) that was equipped with a Turbo V electrospray ionization (ESI) source (the MS/MS parameters are shown in Table S1). The levels of AEA, 2-AG and PEA were then calculated as pmoles per 10^6 cells, as reported in [60].

PEA = test: Endogenous PEA content by UHPLC-MS/MS; type: cell-based, human; conditions: HaCaT cells, half-IC50 dose, 24 h, vs. control
Experimental: as §3

skin = system: skin; parameters: method as in PMID 35056807; conditions: applied topically; ref [59]; cited from earlier work

SMILES	Gene Expression CB1 (CB1 [1])	gene expression of CB1 (in words) (CB1 [1])	gene expression of NAPE-PLD (in words) (NAPE-PLD)	FAAH protein expression (in words) (FAAH [2])	CB1 protein expression (in words) (CB1 [3])	Protein Expression CB1 (CB1 [3])	DAGLα protein expression (in words) (DAGLα)	Protein Expression DAGLα (DAGLα)	DAGLβ protein expression (in words) (DAGLβ)	Protein Expression DAGLβ (DAGLβ)	MAGL protein expression (in words) (MAGL [4])	Protein Expression MAGL (MAGL [4])	activity at CB1 (CB1 [5])	Gene Expression FAAH (FAAH [6])	gene expression of FAAH (in words) (FAAH [6])	Protein Expression FAAH (FAAH [2])	gene expression of MAGL (in words) (MAGL [7])	endogenous 2-AG content (2-AG)	endogenous PEA content (PEA)	skin health after topical application (skin)
CCCCCc1cc(O)c2c(c1)OC(C)(CCC=C(C)C)C=C2 (centres unmarked) [CBC, cannabichromene]	↓++++	significantly downregulated	significantly increased	significantly increased																
CCCc1cc(O)c2c(c1)OC(C)(C)[C@@H]1CCC(C)=C[C@@H]21 [THCV, Δ^9-tetrahydrocannabivarin]					significantly reduced	↓+	increased	↑+++	significantly reduced	↓+++	increased	↑++++	CB1 antagonist							
CCCCCc1cc(O)c(C/C=C(\C)CCC=C(C)C)c(O)c1C(=O)O [CBGA, cannabigerolic acid]				significantly increased	significantly reduced	↓++++	increased	NAPE-PLD ↑++++ FAAH ↑++++ DAGLα ↑++++ MAGL ↑++++			increased	NAPE-PLD ↑++++ FAAH ↑++++ DAGLα ↑++++ MAGL ↑++++		FAAH ↓+++	significantly reduced	NAPE-PLD ↑++++ FAAH ↑++++ DAGLα ↑++++ MAGL ↑++++				
CCCCCc1cc(O)c(C/C=C(\C)CCC=C(C)C)c(O)c1 [CBG, cannabigerol]	↑++++	significantly upregulate															significantly increase	markedly increased	markedly increased	reducing the appearance of redness and improving barrier function
